Assays:
[1] = target: T1, BRD4 (BDII_E352-M457) (Homo sapiens, UniProt O60885); assay: TR-FRET bromodomain binding assay, second bromodomain of BRD4; settings: 30 nM probe
T1 construct: protocol; made in house
In short: (§1)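 Ki values derive from IC50s using probe Kd and concentration, with IC50s fitted to normalized TR-FRET ratios (Ex 340/Em 495, 520). Compounds competed against an Alexa647-labelled BET-inhibitor (100 nM BDI, 30 nM BDII) for 8 nM His-tagged bromodomain bound by Eu-anti-His antibody, 1 h, room temperature, pH 6.0.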

[2] = tested on: breast cancer cell line MX-1; assay: MX-1 cell line proliferation assay; assay type: cell-based; settings: MX-1 cells, 3-day proliferation assay, Cell Titer Glo; read-out: Cellular proliferation: EC50
In short: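 EC50 comes from sigmoidal fits of Cell Titer Glo luminescence relative to DMSO controls, with assay MSR 2.1. Ten-point 3-fold dilutions (top 3 or 1 μM final) were added to MX-1 breast cancer cells after overnight adhesion. Cells were at 5000/well and proliferation ran 3 days.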

[3] = target: T2, BRD4 (BDI_K57-E168) (Homo sapiens, UniProt O60885); assay: TR-FRET bromodomain binding assay, first bromodomain of BRD4; settings: 100 nM probe
T2 construct: BD1: amino acids K57-E168; made in house
In short: as §1

[4] = TR-FRET assay protocol G (compound 0.92 μM-15 pM)
[5] = TR-FRET assay protocol E (compound 9.19 μM-150 pM)

Cn1cc2c3c(c[nH]c3c1=O)C(C1CCOCC1)N(c1ccc(F)cc1F)c1ccc(CS(C)(=O)=O)cc1-2 (stereo not drawn) [Example 228, 4-(2,4-difluorophenyl)-10-methyl-7-((methylsulfonyl)methyl)-3-(tetrahydro-2H-pyran-4-yl)-3,4-dihydro-1H-1,4,10-triazadibenzo[cd,f]azulen-11(10H)-one] showed a Ki [1, 4] of 2.22 nM, an EC50 [2] of 84.9 nM and a Ki [3, 4] of 24.5 nM.

Cn1cc2c3c(c[nH]c3c1=O)CN(c1cccnc1)c1ccc(CS(C)(=O)=O)cc1-2 [Example 244, 10-methyl-7-((methylsulfonyl)methyl)-4-(pyridin-3-yl)-3,4-dihydro-1H-1,4,10-triazadibenzo[cd,f]azulen-11(10H)-one] showed a Ki [1, 4] of 1.02 nM, an EC50 [2] of 2.13 nM and a Ki [3, 4] of 0.43 nM.

Cn1cc2c3c(c[nH]c3c1=O)CN(C(=O)Oc1ccccc1)c1ccc(CS(C)(=O)=O)cc1-2 [Example 93, phenyl 10-methyl-7-((methylsulfonyl)methyl)-11-oxo-10,11-dihydro-1H-1,4,10-triazadibenzo[cd,f]azulene-4(3H)-carboxylate] gave a Ki [1, 4] of 1.63 nM, an EC50 [2] of 2.59 nM and a Ki [3, 4] of 2.84 nM.

CC(=O)OCCCCCCC1c2c[nH]c3c(=O)n(C)cc(c23)-c2cc(CS(C)(=O)=O)ccc2N1c1ccc(F)cc1F (stereo not drawn) [Example 128, 6-(4-(2,4-difluorophenyl)-10-methyl-7-((methylsulfonyl)methyl)-11-oxo-3,4,10,11-tetrahydro-1H-1,4,10-triazadibenzo[cd,f]azulen-3-yl)hexyl acetate] showed a Ki [1, 4] of 2 nM, an EC50 [2] of 72.9 nM and a Ki [3, 4] of 29.1 nM.

With CC(C)CNC(=O)C1c2c[nH]c3c(=O)n(C)cc(c23)-c2cc(CS(C)(=O)=O)ccc2N1c1ccc(F)cc1F (stereo not drawn) [Example 161, 4-(2,4-difluorophenyl)-N-isobutyl-10-methyl-7-((methylsulfonyl)methyl)-11-oxo-3,4,10,11-tetrahydro-1H-1,4,10-triazadibenzo[cd,f]azulene-3-carboxamide] the Ki [1, 4] was 21.4 nM, the EC50 [2] was 41.6 nM and the Ki [3, 4] was 32.1 nM.

Molecule CC(=O)NC1CCC(N2Cc3c[nH]c4c(=O)n(C)cc(c34)-c3cc(CS(C)(=O)=O)ccc32)CC1 (mixture of isomers) [Example 243, N-(4-(10-methyl-7-((methylsulfonyl)methyl)-11-oxo-10,11-dihydro-1H-1,4,10-triazadibenzo[cd,f]azulen-4(3H)-yl)cyclohexyl)acetamide] has a Ki [1, 4] of 3.47 nM, an EC50 [2] of 153 nM and a Ki [3, 4] of 1.85 nM.

Work on Cn1cc2c3c(c[nH]c3c1=O)C(CN)N(c1ccc(F)cc1F)c1ccc(CS(C)(=O)=O)cc1-2 (stereo not drawn) [Example 129, 3-(aminomethyl)-4-(2,4-difluorophenyl)-10-methyl-7-((methylsulfonyl)methyl)-3,4-dihydro-1H-1,4,10-triazadibenzo[cd,f]azulen-11(10H)-one] yielded a Ki [1, 4] of 2.5 nM, an EC50 [2] of 250 nM and a Ki [3, 4] of 16.2 nM.

Cn1cc2c3c(c[nH]c3c1=O)CN(CC1CCN(C(=O)OC(C)(C)C)C1)c1ccc(CS(C)(=O)=O)cc1-2 (racemic) [Example 25, tert-butyl 3-((10-methyl-7-((methylsulfonyl)methyl)-11-oxo-10,11-dihydro-1H-1,4,10-triazadibenzo[cd,f]azulen-4(3H)-yl)methyl)pyrrolidine-1-carboxylate] was tested, and the Ki [1, 5] was 0.847 nM, the EC50 [2] was 8.7 nM and the Ki [3, 5] was 1.74 nM.

For Cn1cc2c3c(c[nH]c3c1=O)CN(c1ccc(F)cc1)c1ncc(N)cc1-2 [Example 21, 7-amino-4-(4-fluorophenyl)-10-methyl-3,4-dihydro-1H-1,4,5,10-tetraazadibenzo[cd,f]azulen-11(10H)-one], the Ki [1, 4] was 3 nM, the EC50 [2] was 1.05 nM and the Ki [3, 4] was 4.43 nM.

In the case of Cn1cc2c3c(c[nH]c3c1=O)C(CCC(=O)NC1CCNCC1)N(c1ccc(F)cc1F)c1ccc(CS(C)(=O)=O)cc1-2 (stereo not drawn) [Example 132, 3-(4-(2,4-difluorophenyl)-10-methyl-7-((methylsulfonyl)methyl)-11-oxo-3,4,10,11-tetrahydro-1H-1,4,10-triazadibenzo[cd,f]azulen-3-yl)-N-(piperidin-4-yl)propanamide], the Ki [1, 4] is reported as 3.14 nM, the EC50 [2] is reported as > 1000 nM and the Ki [3, 4] is reported as 11.3 nM.

Work on Cn1cc2c3c(c[nH]c3c1=O)C(CCCOc1ccccc1)N(c1ccc(F)cc1F)c1ccc(CS(C)(=O)=O)cc1-2 [Example 145, (R)-4-(2,4-difluorophenyl)-10-methyl-7-((methylsulfonyl)methyl)-3-(3-phenoxypropyl)-3,4-dihydro-1H-1,4,10-triazadibenzo[cd,f]azulen-11(10H)-one] yielded a Ki [1, 4] of 1.38 nM, an EC50 [2] of 80.6 nM and a Ki [3, 4] of 55.1 nM.

Work on COc1cc(OC)cc(C2c3c[nH]c4c(=O)n(C)cc(c34)-c3cc(CS(C)(=O)=O)ccc3N2c2ccc(F)cc2F)c1 (stereo not drawn) [Example 222, 4-(2,4-difluorophenyl)-3-(3,5-dimethoxyphenyl)-10-methyl-7-((methylsulfonyl)methyl)-3,4-dihydro-1H-1,4,10-triazadibenzo[cd,f]azulen-11(10H)-one] yielded a Ki [1, 4] of 29.4 nM, an EC50 [2] of 160 nM and a Ki [3, 4] of 170 nM.

In the case of Cn1cc2c3c(c[nH]c3c1=O)C(c1ccccn1)N(c1ccc(F)cc1F)c1ccc(CS(C)(=O)=O)cc1-2 (stereo not drawn) [Example 232, 4-(2,4-difluorophenyl)-10-methyl-7-((methylsulfonyl)methyl)-3-(pyridin-2-yl)-3,4-dihydro-1H-1,4,10-triazadibenzo[cd,f]azulen-11(10H)-one], the Ki [1, 4] is reported as 8.48 nM, the EC50 [2] is reported as 363 nM and the Ki [3, 4] is reported as 108 nM.

CCOC(=O)C1c2c[nH]c3c(=O)n(C)cc(c23)-c2cc(CS(C)(=O)=O)ccc2N1c1ccc(F)cc1 [Example 84, (R)-ethyl 4-(4-fluorophenyl)-10-methyl-7-((methylsulfonyl)methyl)-11-oxo-3,4,10,11-tetrahydro-1H-1,4,10-triazadibenzo[cd,f]azulene-3-carboxylate] gave a Ki [1, 4] of 3.86 nM, an EC50 [2] of 17.7 nM and a Ki [3, 4] of 2.24 nM.

For Cn1cc2c3c(c[nH]c3c1=O)C(CNC(=O)CN)N(c1ccc(F)cc1F)c1ccc(CS(C)(=O)=O)cc1-2 (stereo not drawn) [Example 139, 2-amino-N-((4-(2,4-difluorophenyl)-10-methyl-7-((methylsulfonyl)methyl)-11-oxo-3,4,10,11-tetrahydro-1H-1,4,10-triazadibenzo[cd,f]azulen-3-yl)methyl)acetamide], the Ki [1, 4] was 2.33 nM, the EC50 [2] was 627 nM and the Ki [3, 4] was 17.5 nM.

In the case of Cn1cc2c3c(c[nH]c3c1=O)C(c1cccc3ccccc13)N(c1ccc(F)cc1F)c1ccc(CS(C)(=O)=O)cc1-2 (stereo not drawn) [Example 217, 4-(2,4-difluorophenyl)-10-methyl-7-((methylsulfonyl)methyl)-3-(naphthalen-1-yl)-3,4-dihydro-1H-1,4,10-triazadibenzo[cd,f]azulen-11(10H)-one], the Ki [1, 4] is reported as 42.6 nM, the EC50 [2] is reported as > 1000 nM and the Ki [3, 4] is reported as 193 nM.

For Cn1cc2c3c(c[nH]c3c1=O)C(CCCCCCO)N(c1ccc(F)cc1F)c1ccc(CS(C)(=O)=O)cc1-2 (stereo not drawn) [Example 136, 4-(2,4-difluorophenyl)-3-(6-hydroxyhexyl)-10-methyl-7-((methylsulfonyl)methyl)-3,4-dihydro-1H-1,4,10-triazadibenzo[cd,f]azulen-11(10H)-one], the Ki [1, 4] was 1.33 nM, the EC50 [2] was 49.2 nM and the Ki [3, 4] was 13.2 nM.

Work on COC(=O)CCCCC1c2c[nH]c3c(=O)n(C)cc(c23)-c2cc(CS(C)(=O)=O)ccc2N1c1ccc(F)cc1F (stereo not drawn) [Example 134, methyl 5-(4-(2,4-difluorophenyl)-10-methyl-7-((methylsulfonyl)methyl)-11-oxo-3,4,10,11-tetrahydro-1H-1,4,10-triazadibenzo[cd,f]azulen-3-yl)pentanoate] yielded a Ki [1, 4] of 1.11 nM, an EC50 [2] of 182 nM and a Ki [3, 4] of 14.4 nM.

Cn1cc2c3c(c[nH]c3c1=O)CN(CC1CCN(C(=O)OC(C)(C)C)CC1)c1ccc(CS(C)(=O)=O)cc1-2 [Example 28] gave a Ki [1, 5] of 1.17 nM, an EC50 [2] of 13.7 nM and a Ki [3, 5] of 1.1 nM.

Cn1cc2c3c(c[nH]c3c1=O)C(CCC(=O)N1CCOCC1)N(c1ccc(F)cc1F)c1ccc(CS(C)(=O)=O)cc1-2 (stereo not drawn) [Example 120, 4-(2,4-difluorophenyl)-10-methyl-7-((methylsulfonyl)methyl)-3-(3-morpholino-3-oxopropyl)-3,4-dihydro-1H-1,4,10-triazadibenzo[cd,f]azulen-11(10H)-one] was tested, and the Ki [1, 4] was 1.59 nM, the EC50 [2] was > 1000 nM and the Ki [3, 4] was 9.28 nM.

For Cn1cc2c3c(c[nH]c3c1=O)CN(C(=O)Nc1ccc(F)cc1)c1ccc(CS(C)(=O)=O)cc1-2 [Example 46], the Ki [1, 4] was 7.48 nM, the EC50 [2] was 152 nM and the Ki [3, 4] was 13.7 nM.
